US11739074B2, “Ras inhibitors” (Revolution Medicines, Inc., priority 2019, dated 2023)
Where two headings read alike, the source gives them in different places.

Tests used:
[1] = ester bond, EDCI/HOBt/DIPEA, DCM, 25.0 °C, 16.0 h
[2] = ester bond, 18-membered ring, EDCI/HOBt/DIEA, DCM, 25.0 °C
SW1573 = conditions: cited from earlier work
[3] = from CCn1c(-c2cccnc2[C@H](C)OC)c(CC(C)(C)CO)c2cc(-c3cc(C[C@H](NC(=O)OC(C)(C)C)C(=O)N4CCC[C@@H](C(=O)O)N4)cc(O[Si](C(C)C)(C(C)C)C(C)C)c3)ccc21, 15.3 mM

CCn1c(-c2cccnc2[C@H](C)OC)c2c3cc(ccc31)-c1cc(cc(C(F)F)c1)C[C@H](NC(=O)OC(C)(C)C)C(=O)N1CCC[C@H](N1)C(=O)OCC(C)(C)C2
ring closure, yield of all isomers ([1]; from CCn1c(-c2cccnc2[C@H](C)OC)c(CC(C)(C)CO)c2cc(-c3cc(C[C@H](NC(=O)OC(C)(C)C)C(=O)N4CCC[C@@H](C(=O)O)N4)cc(C(F)F)c3)ccc21, 21.05 mM): 71.6% | ring closure, isolated yield ([2]; from CCn1c(-c2cccnc2[C@H](C)OC)c(CC(C)(C)CO)c2cc(-c3cc(C[C@H](NC(=O)OC(C)(C)C)C(=O)N4CCC[C@@H](C(=O)O)N4)cc(C(F)F)c3)ccc21, 21.0 mM): 71.6%

CCn1c(-c2cccnc2[C@H](C)OC)c2c3cc(ccc31)-c1cc(cc(O[Si](C(C)C)(C(C)C)C(C)C)c1)C[C@H](NC(=O)OC(C)(C)C)C(=O)N1CCC[C@H](N1)C(=O)OCC(C)(C)C2
ring closure, yield of all isomers [1, 3]: 42% | ring closure, isolated yield [2, 3]: 42%

C=CC(=O)N1CCN(c2nc(=O)n(-c3c(C)ccnc3C(C)C)c3nc(-c4c(O)cccc4F)c(F)cc23)[C@@H](C)C1 [AMG510]
sensitivity of cell line SW1573 to inhibitor (SW1573): insensitive
